Source: US12195427B2, “MASP-2 inhibitors and methods of use” (priority 2018, dated 2025)
Structures can show the parent of a compound that is named as a salt.

Molecular target: MASP-2 CCP2-SP (Homo sapiens (Human), UniProt O00187)
Assay: MASP-2 co-crystallization, X-ray crystallography and structure analysis (H-bonds, van der Waals contacts);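 for Ligand-pharmacophore element distance, pharmacophore element C2: distance from averaged pharmacophore element to bound ligand; missing value means element absent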;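 for Ligand-pharmacophore element distance, pharmacophore element C3: distance from averaged pharmacophore element to bound ligand; missing value means element absent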;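 for Ligand-pharmacophore element distance, pharmacophore element C4: distance from averaged pharmacophore element to bound ligand; missing value means element absent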;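 for Ligand-pharmacophore element distance, pharmacophore element C5: distance from averaged pharmacophore element to bound ligand; missing value means element absent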
Set-up: van der Waals contact distance, MASP-2 HIS 483 atom CD2 / van der Waals contact distance, MASP-2 HIS 483 atom NE2 / van der Waals contact distance, SER 654 C to compound atom / van der Waals contact distance, SER 654 O to compound atom / van der Waals contact distance, TRP 655 C to compound atom / van der Waals contact distance, MASP-2 GLY 528 atom CA / van der Waals contact distance TRP 655 atom CZ3 / van der Waals contact distance TRP 655 atom N / van der Waals contact distance TRP 655 atom CE3 / van der Waals contact distance GLY 656 atom C / van der Waals contact distance GLY 656 atom CA / van der Waals contact distance GLY 656 atom O / van der Waals contact distance, MASP-2 TYR 607 atom CD1 / van der Waals contact distance, MASP-2 PRO 606 atom O / d(C3,CA1) / d(CA1,N1)2 / d(H4,O1) / d(H4,O2) / d(O1,O2) / d(CA1,O2) / d(CA6,O1) / d(CA6,O2) / d(CA1,C5) / d(O2,H3) / d(N2,C2) / d(CA5,N2) / d(N2,C4) / d(N2,C6) / d(N2,CA3) / d(N2,O3) / d(O4,H2): unit not given beside the values
Conditions: for H-bond distance to MASP-2 ASP 627 atom OD2: ASP 627 OD2; for H-bond distance to MASP-2 GLY 656 atom N: GLY 656 N; for H-bond distance to MASP-2 GLY 656 atom O: GLY 656 O; for H-bond distance to MASP-2 SER 654 atom O: SER 654 O; for H-bond distance to MASP-2 SER 657 atom O: SER 657 O; for van der Waals contact distance, MASP-2 HIS 483 atom CD2 / van der Waals contact distance, MASP-2 HIS 483 atom NE2: Table A2-1; for Ligand-pharmacophore element distance, pharmacophore element C2 / Ligand-pharmacophore element distance, pharmacophore element C3 / Ligand-pharmacophore element distance, pharmacophore element C4 / Ligand-pharmacophore element distance, pharmacophore element C5 / Ligand-pharmacophore element distance, pharmacophore element C6 / Ligand-pharmacophore element distance, pharmacophore element C7 / Ligand-pharmacophore element distance, pharmacophore element CA1 / Ligand-pharmacophore element distance, pharmacophore element CA2 / Ligand-pharmacophore element distance, pharmacophore element CA3 / Ligand-pharmacophore element distance, pharmacophore element CA4 / Ligand-pharmacophore element distance, pharmacophore element CA5 / Ligand-pharmacophore element distance, pharmacophore element CA6: Table A4-1; for a(N1, CA1, O1) b): Methyl-amino-pyridine compounds; for van der Waals contact distance TRP 655 atom CE3: MASP-2 TRP 655 CE3, compound atom in line below
Method in brief: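 First, CCP2-SP constructs with or without a 6His tag are produced in E. coli. Crystals are then soaked once or twice with inhibitor, cryoprotected in 20% glycerol or frozen directly, and diffracted at synchrotron beamlines. Phasing uses molecular replacement with parts of 1Q3X.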

[1] = Table A5-1 pharmacophore: distance between elements, S2/S1 region
[2] = Table A5-2 pharmacophore distance, S3/S4 region
[3] = Table A7-1, between pharmacophore elements of the bound compound
[4] = Table A7-2, between pharmacophore elements of the bound compound

Sequence of MASP-2 CCP2-SP (O00187 445-686): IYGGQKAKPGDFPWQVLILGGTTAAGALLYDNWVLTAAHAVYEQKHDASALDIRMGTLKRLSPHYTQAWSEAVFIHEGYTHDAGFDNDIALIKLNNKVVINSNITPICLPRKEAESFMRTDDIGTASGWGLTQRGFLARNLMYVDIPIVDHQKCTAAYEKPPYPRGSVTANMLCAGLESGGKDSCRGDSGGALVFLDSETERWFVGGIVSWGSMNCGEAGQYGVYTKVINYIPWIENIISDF
Sequence of MASP-2 CCP2-SP (O00187 364-432 partner): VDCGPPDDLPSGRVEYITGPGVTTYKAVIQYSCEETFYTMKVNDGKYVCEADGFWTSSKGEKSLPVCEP

## Cc1nc(N)ccc1CNC(=O)[C@H](C)NC(=O)[C@H]1C[C@H](Cc2cc(Cl)cc(Cl)c2)CN1 [compound 1435, (2R,4S)—N—((S)-1-(((6-Amino-2-methylpyridin-3-yl)methyl)amino)-1-oxopropan-2-yl)-4-(3,5-dichlorobenzyl)pyrrolidine-2-carboxamide Dihydrochloride]
Table A1 (H-Bonds)
  H-bond distance to MASP-2 ASP 627 atom OD2: 3.32
  H-bond distance to MASP-2 GLY 656 atom N: 3.26
  H-bond distance to MASP-2 GLY 656 atom O: 2.79
  H-bond distance to MASP-2 SER 654 atom O: 3.01
  H-bond distance to MASP-2 SER 657 atom O: 2.84
Table A2
  van der Waals contact distance, MASP-2 amino acid atom to compound atom: 3.83
  van der Waals contact distance, MASP-2 HIS 483 atom CD2: 3.7
  van der Waals contact distance, MASP-2 HIS 483 atom NE2: 3.6
  Ligand-pharmacophore element distance, pharmacophore element C2: 0
  Ligand-pharmacophore element distance, pharmacophore element C3: 0.15
  Ligand-pharmacophore element distance, pharmacophore element C4: 1.37
  Ligand-pharmacophore element distance, pharmacophore element C5: 0
  Ligand-pharmacophore element distance, pharmacophore element C6: 0.38
  Ligand-pharmacophore element distance, pharmacophore element C7: 0
  Ligand-pharmacophore element distance, pharmacophore element CA1: 0.6
  Ligand-pharmacophore element distance, pharmacophore element CA2: 0.8
  Ligand-pharmacophore element distance, pharmacophore element CA3: 0
  Ligand-pharmacophore element distance, pharmacophore element CA4: 0
  Ligand-pharmacophore element distance, pharmacophore element CA5: 0
  Ligand-pharmacophore element distance, pharmacophore element CA6: 0
Table A2-3
  van der Waals contact distance, MASP-2 PHE 529 atom CD2: 3.61
Table A2-7: SER 628 (CB, O, OG)
  van der Waals contact distance, MASP-2 amino acid atom to compound atom: 3.67
Table A2-12
  van der Waals contact distance, TRP 655 CA to compound atom: 3.41
[1]
  d(C3,CA1): 2.85
  d(CA1,N1)2: 1.38
  d(CA1,O1): 4.36
  d(CA1,O2): 3.86
  d(H4,O1): 4.37
  d(H4,O2): 3.79
  d(O1,O2): 3.37
[2]
  d(N2,C4): 8.24
  d(N2,C4)4: 8.24
  d(N2,C6): 7.51
  d(N2,CA2): 6.00
  d(O2,H3): 4.33
  d(O2,N2): 2.62
Table A6-1 pharmacophore angle
  a(C3, CA1, O1): 149.49
  a(CA1, O1, O2): 106.19
  a(O1, O2, H4): 131.96
  a(N1, CA1, O1) b): 173.74
Table A6-2 pharmacophore angle
  a(O1, O2, H3): 147.24
  a(O1, O2, N2): 139.75
  a(O2, N2, C4): 164.21
  a(O2, N2, C4) 2: 121.06
  a(O2, N2, C6): 99.38
  a(O2, N2, CA2): 157.86
[3]
  Pharmacophore torsion angle a(C3, CA1, O1, H4): 24.44
  Pharmacophore torsion angle a(H4, O1, O2, H3): 51.39
  Pharmacophore torsion angle a(H4, O1, O2, N2): 136.22
  Pharmacophore torsion angle a(N1, CA1, O1, H4): 1.43
  Pharmacophore torsion angle a(O1, H4, O2, CA1): −83.48
[4]
  Pharmacophore torsion angle a(O1, O2, N2, C6): 137.30
  Pharmacophore torsion angle a(O1, O2, N2, CA2): 123.48

## Cc1nc(N)ccc1CNC(=O)[C@H](C)NC(=O)[C@H]1C[C@@H](c2ccccc2)CCN1C [compound 1441, (2R,4S)—N—((S)-1-(((6-Amino-2-methylpyridin-3-yl)methyl)amino)-1-oxopropan-2-yl)-1-methyl-4-phenylpiperidine-2-carboxamide]
Table A1 (H-Bonds)
  H-bond distance to MASP-2 ASP 627 atom OD2: 3.23
  H-bond distance to MASP-2 GLY 656 atom N: 3.2
  H-bond distance to MASP-2 SER 654 atom O: 3.07
  H-bond distance to MASP-2 SER 657 atom O: 2.91
Table A1 (H-Bonds), SER 628 O
  H-bond distance to MASP-2 SER 628 atom O: 3.06
Table A2
  van der Waals contact distance, MASP-2 amino acid atom to compound atom: 3.8
  van der Waals contact distance, MASP-2 HIS 483 atom CD2: 3.74
  van der Waals contact distance, MASP-2 HIS 483 atom NE2: 3.61
  Ligand-pharmacophore element distance, pharmacophore element C2: 0.54
  Ligand-pharmacophore element distance, pharmacophore element C3: 0.17
  Ligand-pharmacophore element distance, pharmacophore element C4: 0
  Ligand-pharmacophore element distance, pharmacophore element C5: 0
  Ligand-pharmacophore element distance, pharmacophore element C6: 0
  Ligand-pharmacophore element distance, pharmacophore element C7: 0
  Ligand-pharmacophore element distance, pharmacophore element CA1: 0.64
  Ligand-pharmacophore element distance, pharmacophore element CA2: 0.64
  Ligand-pharmacophore element distance, pharmacophore element CA3: 0
  Ligand-pharmacophore element distance, pharmacophore element CA4: 0
  Ligand-pharmacophore element distance, pharmacophore element CA5: 0
  Ligand-pharmacophore element distance, pharmacophore element CA6: 0
Table A2-2
  van der Waals contact distance, MASP-2 GLY 528 atom CA: 3.71
Table A2-3
  van der Waals contact distance, MASP-2 PHE 529 atom CE1: 3.85
Table A2-9, ARG 630, AA atoms CG, CZ
  van der Waals contact distance, MASP-2 amino acid atom to compound atom: 3.87
Table A2-11
  van der Waals contact distance, VAL 653 CG1 to compound atom: 3.38
Table A2-12
  van der Waals contact distance, SER 654 O to compound atom: 3.85
  van der Waals contact distance, TRP 655 CA to compound atom: 3.34
Table A2-13
  van der Waals contact distance TRP 655 atom CE3: 3.65
Table A2-13, MASP-2 TRP 655 CZ3
  van der Waals contact distance TRP 655 atom CZ3: 3.75
[1]
  d(C3,CA1): 2.85
  d(CA1,N1)2: 1.37
  d(CA1,O1): 4.27
  d(CA1,O2): 3.96
  d(H4,O1): 4.29
  d(H4,O2): 3.79
  d(O1,O2): 3.29
[2]
  d(N2,C2): 1.45
  d(N2,CA2): 5.75
  d(O2,H3): 4.15
  d(O2,N2): 2.72
Table A6-1 pharmacophore angle
  a(C3, CA1, O1): 148.89
  a(CA1, O1, O2): 108.56
  a(O1, O2, H4): 132.47
  a(N1, CA1, O1) b): 173.13
Table A6-2 pharmacophore angle
  a(O1, O2, H3): 145.43
  a(O1, O2, N2): 144.23
  a(O2, N2, C2): 131.10
  a(O2, N2, CA2): 156.32
[3]
  Pharmacophore torsion angle a(C3, CA1, O1, H4): 21.88
  Pharmacophore torsion angle a(H4, O1, O2, H3): 50.54
  Pharmacophore torsion angle a(H4, O1, O2, N2): 141.99
  Pharmacophore torsion angle a(N1, CA1, O1, H4): −6.82
  Pharmacophore torsion angle a(O1, H4, O2, CA1): −80.01
  Pharmacophore torsion angle a(O1, O2, N2, C2): 117.29
[4]
  Pharmacophore torsion angle a(O1, O2, N2, CA2): 126.16

## Cc1cnc(NCCc2ccccc2)c(=O)n1CC(=O)NCc1ccc2nc(N)[nH]c2c1 [compound 1492, N-((2-Amino-1H-benzo[d]imidazol-6-yl)methyl)-2-(6-methyl-2-oxo-3-(phenethylamino)pyrazin-1(2H)-yl)acetamide Trifluoroacetamide salt]
Table A1 (H-Bonds)
  H-bond distance to MASP-2 ASP 627 atom OD2: 3.32
  H-bond distance to MASP-2 GLY 656 atom N: 3.06
  H-bond distance to MASP-2 GLY 656 atom O: 2.7
  H-bond distance to MASP-2 SER 654 atom O: 2.78
  H-bond distance to MASP-2 SER 657 atom O: 2.72
Table A1 (H-Bonds), SER 657 OG
  H-bond distance to MASP-2 SER 657 atom OG: 2.62
  van der Waals contact distance, MASP-2 HIS 483 atom CD2: 3.78
  Ligand-pharmacophore element distance, pharmacophore element C2: 2.91
  Ligand-pharmacophore element distance, pharmacophore element C3: 0
  Ligand-pharmacophore element distance, pharmacophore element C4: 0
  Ligand-pharmacophore element distance, pharmacophore element C5: 0
  Ligand-pharmacophore element distance, pharmacophore element C6: 0
  Ligand-pharmacophore element distance, pharmacophore element C7: 0
  Ligand-pharmacophore element distance, pharmacophore element CA1: 1.7
  Ligand-pharmacophore element distance, pharmacophore element CA2: 0
  Ligand-pharmacophore element distance, pharmacophore element CA3: 0
  Ligand-pharmacophore element distance, pharmacophore element CA4: 0
  Ligand-pharmacophore element distance, pharmacophore element CA5: 0.84
  Ligand-pharmacophore element distance, pharmacophore element CA6: 0
Table A2-4
  van der Waals contact distance, MASP-2 PRO 606 atom O: 3.81
Table A2-9 second part, ARG 630, AA atoms N, NE, NH1
  van der Waals contact distance, MASP-2 amino acid atom to compound atom: 3.71
Table A2-11
  van der Waals contact distance, SER 654 C to compound atom: 3.88
  van der Waals contact distance, VAL 653 CG1 to compound atom: 3.61
Table A2-12
  van der Waals contact distance, TRP 655 C to compound atom: 3.7
Table A2-13
  van der Waals contact distance TRP 655 atom CE3: 3.74
Table A2 section before Table A2-8
  van der Waals contact distance, MASP-2 amino acid atom to compound atom: 3.86
[1]
  d(CA1,N1): 1.85
  d(CA1,O1): 4.66
  d(CA1,O2): 6.47
  d(CA6,O1): 3.43
  d(CA6,O2): 1.13
  d(H4,O1): 3.14
  d(H4,O2): 5.11
  d(O1,O2): 3.18
[2]
  d(O2,H3): 7.20
Table A6-1 pharmacophore angle
  a(CA1, O1, O2): 137.45
  a(O1, CA6, O2): 87.17
  a(O1, O2, H4): 143.64
Table A6-1 pharmacophore angle, all compounds with protonatable center N1 except Methyl-amino-pyridine
  A(N1, CA1, O1) a): 173.84
Table A6-2 pharmacophore angle
  a(O1, O2, H3): 153.97
[3]
  Pharmacophore torsion angle a(CA6, O1, H4, O2): −19.90
  Pharmacophore torsion angle a(H4, O1, O2, H3): 94.72
  Pharmacophore torsion angle a(N1, CA1, O2, H4): −132.36
  Pharmacophore torsion angle a(O1, H4, O2, CA1): −60.21
